Consider 25 compounds from patent US4442106A, “Quinoline derivatives, pharmaceutical compositions containing such compounds, and methods of treating cardiovascular conditions with them” (ACF Chemiefarma N.V., priority 1980, dated 1984).

Molecules are shown by their SMILES. Like-named read-outs stand apart in the source and are kept apart here.

The test system of experiment [1] is spontaneously hypertensive rats. Briefly: Effectiveness in spontaneously hypertensive rats: systolic blood pressure by tail cuff method. The format is in vivo. The note with it: Rattus norvegicus, read-out: Change of systolic blood-pressures. The protocol: Experiment 1-Effectiveness of the compounds of Examples in spontaneously hypertensive rats
Systolic blood pressures were recorded by a modification of the tail cuff method described by I.M. Claxton et al., Eur. J.Pharmacology 37, 179 (1976). An oscilloscope or W+W BP recorder, model 8002, was used to display pulses.
Prior to all measurements rats were placed in a heated environment (33.5±0.5° C.) before transfer to a restraining cage. Each determination of blood pressure was the mean of at least 6 readings.
Spontaneously hypertensive rats (aged 12-18 weeks) with systolic blood pressures >170 mm Hg were considered hypertensive.
In the following table the results with certain compounds of the invention, which have been carried out with the above-described method, are mentioned. The numbers of the compounds correspond with those of the Examples.

Experiment [2] concerns right ventricle of the heart. Briefly: Guinea Pigs Electrostimulation Test (arrhythmias by electrostimulation of the right ventricle of the heart). The note with it: Cavia porcellus, 0.5 h, 30 minutes before stimulation, read-out: Percent increase in voltage required for arrhythmia; for change in vivo at 32 mg/kg: standard dose 32 mg/kg intraduodenal. Type of experiment: in vivo. The protocol: Experiment 2-Effectiveness of the compounds of Examples in the Guinea Pigs Electrostimulation Test
Arrhythmias are induced in guinea pigs by electrostimulation of the right ventricle of the heart. The animals are anaesthesized with urethane (1.2 g/kg i.p.) and artificially respirated before a needle electrode is inserted in the right ventricle of the heart. Substances are given intraduodinally 30 minutes before the stimulation at a standard dose of 32 mg/kg. In some cases a different dose was used as indicated.
The voltage needed for induction of extra systoles in control animals (n=6) is compared with that required for induction of arrhythmias in treated animals (n=6).
This method is based on the work of L. Szekeres and G. J. Papp, Naunyn-Schmiedebergs Arch. Exp. Path. Pharmak., 245, 70 (1963).
In the table the results of certain compounds of the invention are mentioned, which have been carried out according to the method described above.
The numbers of the compounds correspond with those of the Examples.

Turning to `CC[C@H]1CN(CCCC(=O)c2ccccc2)CC[C@H]1CCC(=O)c1cc(C)nc2ccccc12` [Compound 25, N-(3-benzoylpropyl)-2'-methyl-hydrocinchonicine.bifumarate], the change in vivo at 100 mg/kg is -16% in experiment [1] (1 h); -25% in experiment [1] (2 h); -9% in experiment [1] (4 h); -5% in experiment [1] (6 h); 2% in experiment [1] (24 h). Moreover, the change in vivo at 32 mg/kg in experiment [2] amounted to 5%.

Turning to `CCCCCN1CC[C@@H](CCC(=O)c2cc(C)nc3ccccc23)[C@@H](CC)C1` [Compound 27], the change in vivo at 100 mg/kg in experiment [1] (1 h) is -1%; in experiment [1] (2 h), -13%; in experiment [1] (4 h) it was -28%; in experiment [1] (6 h), -16%; in experiment [1] (24 h) it was -3%. In addition, the change in vivo at 32 mg/kg in experiment [2] was -2%.

Take `C=C[C@H]1CN(CCCC(=O)c2ccc(F)cc2)CC[C@H]1CCC(=O)c1cc(C)nc2ccccc12` [Compound 28]: the change in vivo at 10 mg/kg is -5% in experiment [1] (1 h); -2% in experiment [1] (2 h); -10% in experiment [1] (4 h); -11% in experiment [1] (6 h); 5% in experiment [1] (24 h).

As to `CCCN1CC[C@@H](CCC(=O)c2cc(C)nc3ccc(OC)cc23)[C@@H](CC)C1` [Compound 29], the change in vivo at 100 mg/kg was -10% in experiment [1] (1 h); -27% in experiment [1] (2 h); -18% in experiment [1] (4 h); -22% in experiment [1] (6 h); 0% in experiment [1] (24 h). Besides, the change in vivo at 16 mg/kg in experiment [2] (intraduodenal) came out at 9%.

In the case of `CCCc1cc(C(=O)CC[C@@H]2CCN(CCC)C[C@@H]2CC)c2ccccc2n1` [Compound 30, N-propyl-2'-propyl-hydrocinchonicine], the change in vivo at 8 mg/kg in experiment [2] (intraduodenal) was 60%.

In the case of `CCCCCN1CC[C@@H](CCC(=O)c2cc(CCC)nc3ccccc23)[C@@H](CC)C1` [Compound 31, N-pentyl-2'-propyl-hydrocinchonicine], the change in vivo at 32 mg/kg in experiment [2] is 31%.

With `CCCc1cc(C(=O)CC[C@@H]2CCN(CCCC(=O)c3ccccc3)C[C@@H]2CC)c2ccccc2n1` [Compound 32, N-(3-benzoylpropyl)-2'-propyl-hydrocinchonicine], the change in vivo at 10 mg/kg in experiment [1] (1 h) was -4%; in experiment [1] (2 h), -11%; in experiment [1] (4 h) it was -8%; in experiment [1] (6 h), -22%; in experiment [1] (24 h), -3%. In addition, the change in vivo at 32 mg/kg in experiment [2] came out at 52%.

For the compound `CC[C@H]1CN(CC(C)(C)O)CC[C@H]1CCC(=O)c1cc(C(C)C)nc2ccccc12` [Compound 36, N-(2-hydroxy-2-methylpropyl)-2'-isopropylhydrocinchonicine.bioxalate], the change in vivo at 32 mg/kg in experiment [2] was found to be 91%.

Consider `CCCN1CC[C@@H](CCC(O)c2cc(C)nc3ccc(OC)cc23)[C@@H](CC)C1` (stereo partly shown) [Compound 40, N-propyl-2'-methyl-hydroquinicinol-1], for which the change in vivo at 16 mg/kg in experiment [2] (intraduodenal) worked out at 44%.

In the case of `CCCc1cc(C(O)CC[C@@H]2CCN(CCC)C[C@@H]2CC)c2cc(OC)ccc2n1` (stereo partly shown) [Compound 42, N-propyl-2'-propyl-hydroquinicinol-1], the change in vivo at 16 mg/kg in experiment [2] (intraduodenal) stood at 74%.

Turning to `CCCCCN1CC[C@@H](CCCc2cc(C)nc3ccccc23)[C@@H](CC)C1` [Compound 44, N-pentyl-2'-methyl-desoxo-hydrocinchonicine], the change in vivo at 100 mg/kg was 2% in experiment [1] (1 h); -15% in experiment [1] (2 h); -30% in experiment [1] (4 h); -43% in experiment [1] (6 h); -6% in experiment [1] (24 h).

For the compound `CC[C@H]1CN(CCCC(=O)c2ccccc2)CC[C@H]1CCCc1cc(C)nc2ccccc12` [Compound 45, N-(3-benzoylpropyl)-2'-methyl-desoxo-hydrocinchonicine], the change in vivo at 10 mg/kg in experiment [1] (1 h) was -14%; in experiment [1] (2 h) it was -6%; in experiment [1] (4 h) it was -14%; in experiment [1] (6 h) it was -21%; in experiment [1] (24 h) it was -2%.

With `CC[C@H]1CN(CCCC(=O)c2ccc(F)cc2)CC[C@H]1CCCc1cc(C)nc2ccccc12` [Compound 46, N-[3-(4-fluorobenzoyl)propyl]-2'-methyl-desoxo-hydrocinchonicine], the change in vivo at 10 mg/kg in experiment [1] (1 h) is -22%; in experiment [1] (2 h), -24%; in experiment [1] (4 h), -20%; in experiment [1] (6 h), -20%; in experiment [1] (24 h), -1%.

As to `CC[C@H]1CN(CCCC(=O)c2ccc(F)cc2)CC[C@H]1CCCc1cc(C)nc2ccc(OCCC(C)C)cc12` [Compound 47, N-[3-(4-fluorobenzoyl)propyl]-2'methyl-6'-isopentoxy-oxy-desoxo-hydrocinchonicine], the change in vivo at 10 mg/kg was -26% in experiment [1] (1 h); -21% in experiment [1] (2 h); -30% in experiment [1] (4 h); -22% in experiment [1] (6 h); 0% in experiment [1] (24 h).

On to `CCCN1CC[C@@H](CCCc2cc(O)nc3ccccc23)[C@@H](CC)C1` [Compound 48], for which, in experiment [2] (intraduodenal), the change in vivo at 16 mg/kg was found to be 19%.

As to `CCCN1CC[C@@H](CCCc2cc(O)nc3ccc(OC)cc23)[C@@H](CC)C1` [Compound 49], the change in vivo at 16 mg/kg in experiment [2] (intraduodenal) worked out at 21%.

`CC[C@H]1CN(CCCC(=O)c2ccc(F)cc2)CC[C@H]1CCCc1cc(C(F)(F)F)nc2ccccc12` [Compound 50]: the change in vivo at 10 mg/kg is -4% in experiment [1] (1 h), -16% in experiment [1] (2 h), -16% in experiment [1] (4 h) and -13% in experiment [1] (6 h).

As to `CC[C@H]1CN(C)CC[C@H]1CCC(=O)c1cc(OC)nc2ccccc12` [Compound 52, 2'-Methoxy-N-methyl-hydrocinchonicine.bioxalate], the change in vivo at 8 mg/kg in experiment [2] (intraduodenal) was 25%.

As to `CC[C@H]1CN(CCCC(c2ccc(F)cc2)c2ccc(F)cc2)CC[C@H]1CC(O)Cc1cc(OC)nc2ccccc12` (stereo partly shown) [Compound 55], the change in vivo at 10 mg/kg in experiment [1] (1 h) is -11%; in experiment [1] (2 h), -5%; in experiment [1] (4 h) it was -7%; in experiment [1] (6 h) it was -10%; in experiment [1] (24 h) it was -2%.

For `CCCN1CC[C@@H](CC(O)Cc2cc(OC)nc3ccc(OC)cc23)[C@@H](CC)C1` (stereo partly shown) [Compound 56], in experiment [2] (at 20 mg/kg, intraduodenal), the change in vivo at 20 mg/kg turned out to be 112%.

As to `CCCN1CC[C@@H](CC(O)Cc2cc(C(F)(F)F)nc3ccccc23)[C@@H](CC)C1` (stereo partly shown) [Compound 58, N-propyl-2'-trifluoromethyl-hydrocinchonicinol-2], the change in vivo at 10 mg/kg in experiment [2] (at 10 mg/kg, intraduodenal) worked out at 133%.

For `CCCN1CC[C@@H](CC(O)Cc2cc(C(F)(F)F)nc3ccccc23)[C@@H](CC)C1` (stereo partly drawn) [Compound 59, 1-(2-trifluoromethyl-4-quinolyl)-3-[3(R)-ethyl-N-propyl-4(S)-piperidyl]-propanol-2], the change in vivo at 4 mg/kg in experiment [2] (at 4 mg/kg, intraduodenal) is 55%.

Turning to `CCCN1CC[C@@H](CC(O)Cc2cc(C(F)(F)F)nc3ccccc23)[C@@H](CC)C1` (stereo partly shown) [Compound 60, N-propyl-2'-trifluoromethyl-hydrocinchonicinol-2], in experiment [2] (intraduodenal), the change in vivo at 8 mg/kg worked out at 137%.

For `CCCCCN1CC[C@@H](CC(=O)Cc2cc(C(F)(F)F)nc3ccccc23)[C@@H](CC)C1` [Compound 64, 1-(2-Trifluoromethyl-4-quinolyl)-3-[3(R)-ethyl-N-pentyl-4(S)-piperidyl]-propanone-2.bifumarate], the change in vivo at 100 mg/kg in experiment [1] (1 h) was -5%; in experiment [1] (2 h), -23%; in experiment [1] (4 h), -17%; in experiment [1] (6 h), -13%; in experiment [1] (24 h) it was -8%.

Regarding `CC[C@H]1CN(CC(C)(C)O)CC[C@H]1CCC(=NOC)c1cc(C)nc2ccccc12` [Compound 66, N-(2-Hydroxy-2-methylpropyl)-2'-methyl-hydrocinchonicine-O-methyl oxime ether.bioxalate], the change in vivo at 16 mg/kg in experiment [2] (intraduodenal) was determined as 43%.
